Measurements: patent US20120322751A1 (priority 2010, published 2012)
Values after ≈ are worked out from the molar mass of the structure shown.

Experiments:
[1] = test system: TPA/pyr induced acute ear inflammation; assay: TPA/pyr induced acute ear inflammation; type: in vivo, Swiss-Webster mice; conditions: topical 0.1% solution
Description: The inflammatory responses occur in three distinct phases, each apparently mediated by different mechanisms: an acute one characterized by local vasodilatation and increased capillary permeability, a subacute phase characterized by infiltration of leukocyte and phagocytic cells and a chronic proliferative phase, in which tissue degeneration and fibrosis occur. Acute inflammation generated by TPA (12-o-tetradecanoylforbolacetat/pyridine) induces an acute inflammatory reaction consisting of erythema, edema and polymorphonuclear leukocyte (PMN) infiltration The mechanism of anti-inflammatory mode of action of di-rhamnolipid BAC-3 is unknown. So far, it has been shown that Pseudomonas di-rhamnolipids stimulate, both chemotaxis and chemokinesis of leukocytes). In vitro studies examining the effects of pulmonary surfactant containing hydrophobic apopoproteins on human neutrophils have the important role of the protein component of the surfactant in enhancing the leukocyte chemotaxis, opsonizing bacteria, enhancing macrophage function, and stimulating antibody production. […] Correspondingly, it has been recognized that glycolipids (biosurfactants) through their virtue of hidrophilic head bind to proteins, i.e. receptors on cell membranes. […] It has been proposed that rhamnolipid increased the early recruitment of inflammatory cells to the site of inflammation without triggering a persistent, abnormal accumulation of neutrophils.
In the experiment it was proven that rhamnolipd (BAC-3) at concentration (1 mg/ml^−1, 0.1% w/v) was effective as a topical therapeutic anti-inflammatory agent in the TPA/pyr model of acute dermal ear inflammation in female Swiss-Webster mice over a time-course of 24 hours. The time of maximal reduction of inflammation was dependent on the time of treatment, with respect to induction.
Post treatment with BAC-3 two hour after inflammation reversed established inflammation with maximal effect after 11 hours. (32% lower inflammation in comparison with control). […]

[2] = Preservation of structure during 10 years after production; type: physicochemical; conditions: under nitrogen N2 in glass bottles at room temperature
Description: On the figure has been shown the purity of the rhamnolipid BAC-3 (FIG. 10) and mass spectrum (FIG. 11) ten years after production. The production of the rhamnolipid BAC-3 purity>98.5 is very expensive procedure. Therefore one of the most important task of rhamnolipid BAC-3 production is achieving clinically acceptable purity without using HPLC-MS equipment, except for control purposes of the purity and mass spectrum.

[3] = test system: Normal human fibroblasts derived from foreskin; assay: Collagen synthesis and total protein synthesis by human fibroblasts in vitro; type: cell-based
Method: a) Neonatal human fibroblast culture was established from a sample of neonatal human foreskin obtained by circumcision. After removal of subcutaneous tissue by dissection, the sample was desegregated by trypsinization with 0.25% trypsin and 1 mM EDTA solution (Gibco). Released cells were propagated in 100 mm plastic tissue culture dishes (Corning) in incubator at 37° C. saturated with 5% CO2. The medium, changed twice weekly, was a mixture of 0.2 mg/ml calcium, 4500 mg/l glucose in Dulbecco's modified Eagle's medium (DMEM, Gibco) supplemented with 10% fetal bovine serum FBS (Gemini-Bio-Products), 0.292 mg/ml L-glutamine (Gibco) and antibiotic-antimycotic solution containing 100 U penicillin-G/ml, 100 mcg/ml streptomycin and 0.25 mcg/ml fungizione in normal saline (Gemini-Bio-Products). Primary culture cells were trypsinized. To achieve enough cells of the same passage, the cells were replanted two times during two weeks and transplanted in bigger dishes before incubation started. At density 5×10^5 NHK 98-009 of fibroblasts of passage 4 was transplanted in Petri dishes in DMEM medium. When cells achieved ca 50% of confluence they were treated with solutions of BAC-3 with 0; 1; 10; 100; 250; and 500 μg/ml and 50 μg/ml of ascorbic acid (Sigma). All solutions were filtrated through 0.2 μm filters (Fisher). The media with or without BAC-3 were changed once after two days. 100 μg of ascorbic acid were added each day in media until achieving final concentration of 50 μg/ml of ascorbic acid in each of Petri dishes. […]
Normal human fibroblasts derived from foreskin were cultured in T-25 flasks and were treated with BAC-3 at concentrations of 1 μg/ml, 10 μg/ml, and 100 μg/ml in the way previously described. […] One half of the sonicate was hydrolyzed in 6N HCl; hydroxyproline was measured in the hydrolisate to determine collagen synthesis. […] Total collagen per flask was determined multiplying the hydroxiproline value by 7.8. […]

[4] = test system: human mononuclear cells (MNC); assay: cells; type: cell-based
[5] = molecular target: T1, Guinea pig lung LTC4 synthase (Cavia porcellus, UniProt A6XA80); assay: Leukotriene C4 synthase inhibition (EIA); type: biochemical; conditions: highest concentration (1,000 μM/ml); solvent DMSO
T1 construct: Guinea pig lung LTC4 synthase was used; from tissue; host or cells: guinea pig lung
T1 sequence (A6XA80 1-150): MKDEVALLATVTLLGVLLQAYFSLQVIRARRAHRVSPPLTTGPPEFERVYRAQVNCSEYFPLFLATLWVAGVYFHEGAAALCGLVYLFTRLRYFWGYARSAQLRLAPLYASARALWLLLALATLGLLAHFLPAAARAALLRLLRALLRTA
Method: Leukotriene C4 (LTC4) synthase is crucial in the formation of LTC4 from LTA4. Taken together with other assays for enzymes involved in the lipoxygenase pathway (e.g. 5-lipoxygenase, LTA4 hydrolase), a locus of action can be established, mechanism of agents' activities which inhibit the formation of the leukotrienes.
Guinea pig lung LTC4 synthase was used. Test compound and/or vehicle was preincubated with 180 μg/ml enzyme dissolved in phosphate buffer pH 7.8 for 15 minutes at 37° C. The reaction was initiated by addition of 2.5 μg/ml LTA4 methyl ester for another 30 minute incubation period and terminated by further addition of ice-cold methanol. Determination of the amount of LTC4 formed was read spectrophotometrically by enzyme immunoassay kit (EIA). Compounds was tested at the concentrations of 1,000; 100; 10; and 1 μM/ml. The used solvent was DMSO.

[6] = test system: DNCB induced delayed type hypersensitivity reactions; assay: Delayed type hypersensitivity (DTH) in DNCB sensitised nude guinea pigs; type: in vivo, nude guinea pig; conditions: topical twice daily during 7 days; by day 7; preliminary data
Method: The nude guinea pig is used as test animal because of different animal skins, nude guinea pig skin is claimed to be the one closest resembling human skin. […] In DNCB sensitised guinea pigs delayed type hypersensitivity reactions were induced with patches soaked with 0.25% (w/v) DNCB in ethanol/propylene glycol kept on the animals back for 24 hours. The test sites were treated twice daily during 7 days with: Dovonex (commercially available ointment with calcipotriene; 1% (w/w) BAC-3 in US petrolatum. Locobasis (commercially available ointment, identical as carrier for steroids; 1% (w/w) non purified BAC-3 (86%) in US petrolatum; US petrolatum; Preferid (commercially available steroid).

Compound: CCCCCCCC(CC(=O)O)OC(=O)CC(CCCCCCC)OC1OC(C)C(O)C(O)C1OC1OC(C)C(O)C(O)C1O (stereo not shown) [BAC-3]
- decrease of inflammation vs control ear, pre-treatment ([1]; single dose 1 hour before TPA/pyr): 15%
- lower inflammation vs control, post treatment ([1]; two hours after induction, maximal effect after 11 hours): 32%
- inhibition of inflammation vs control ear, concurrent treatment ([1]; with TPA/pyr induction, at 6 hours): about 32%
- structure after storage [2]: did not change its structure
- percent of protein synthesis dedicated to collagen synthesis ([3]; 1, 10, 100 μg/ml, harvested day 4 and day 7, vs control cells, p<0.05 ANOVA): significantly reduced
- total collagen synthesis per flask ([3]; treated as in example 6, FIG. 9 (2a)): decreases synthesis of collagen
- overall protein synthesis per flask ([3]; treated as in example 6, FIG. 9 (2b)): increase in overall synthesis
- inhibition of MNC proliferation with SEB as stimulus [4]: almost no inhibition
- proliferation of MNC as response to different stimulants [4]: inhibited proliferation
- IC50 ([4]; Homo sapiens, PHA at 1 μg/ml, printed 'at the concentration of 5 μg/ml', read-out: IC50, inhibition of MNC proliferation in response to PHA): 35 µg/mL (≈ 53.8 µM)
- inhibition at 1000 µM [5]: 81%
- state of DTH test area [6]: almost healed with only a slight erythema present

Compound: C=C1/C(=C\C=C2/CCC[C@]3(C)[C@@H]([C@H](C)/C=C/[C@@H](O)C4CC4)CC[C@@H]23)C[C@@H](O)C[C@@H]1O [calcipotriene, reference compound]
- state of DTH test area [6]: almost healed with only a slight erythema present
